Earlier results on two compounds are cited in patent US20040126318A1, “Methods, formulations and kits for monitoring and diagnosing gastric emptying and gastroparesis, and formulations for determining gastrointestinal motility” (priority 2002, published 2004).

Regarding `CCN(CC)CCNC(=O)c1cc(Cl)c(N)cc1OC` [Metochlopramide], under “patients treated with this drug”, the “patients with serious side effects (drowsiness, nightmares, depression, Parkinsonism)” value was “up to 50%”.
Regarding `COc1cc(N)c(Cl)cc1C(=O)NC1CCN(CCCOc2ccc(F)cc2)CC1OC` (centres unmarked) [cisapride], the cardiac side effects entry (reason for removal from the market by the FDA) is “produced severe and sometimes fatal arrhythmias”.
